Reference: the NIST ThermoML archive (doi:10.1016/j.jct.2012.11.026)

Columns and labels:
[1] = Liquid-liquid equilibrium temperature; conditions: Nematic liquid crystal, visual observation
[2] = Solid-liquid equilibrium temperature; conditions: Crystal, visual observation

CCCCCOc1ccc(-c2ccc(C#N)cc2)cc1 [4'-pentoxy-4-cyanobiphenyl]
Conditions | Liquid-liquid equilibrium temperature, [1] [K] | Solid-liquid equilibrium temperature, [2] [K]
399 kPa | 341.58 | 326.84
1399 kPa | 341.96 | 327.21
2400 kPa | 342.38 | 327.52
3001 kPa | – | 327.72
3400 kPa | – | 327.86
3401 kPa | 342.75 | –
3901 kPa | 342.91 | –
4401 kPa | 343.13 | 328.2
4902 kPa | 343.32 | –
5401 kPa | – | 328.54
5402 kPa | 343.51 | –
6402 kPa | – | 328.84
6403 kPa | 343.9 | –
7403 kPa | – | 329.23
7404 kPa | 344.3 | –
8403 kPa | – | 329.55
8404 kPa | 344.7 | –
9405 kPa | 345.1 | 329.86
10005 kPa | 345.33 | 330.08
